# Test results from ChEMBL document CHEMBL1143523, “Semi-synthesis and biological evaluation of analogues of UK-2A, a novel antifungal antibiotic from Streptomyces sp. 517-02” (2005).
# System: Saccharomyces cerevisiae
# Experiment: Zone of inhibition for Saccharomyces cerevisiae IFO 0203 at 0.25 ug/disc by conventional paper disk method
# Type: functional
row,SMILES,zone of inhibition at 0.25 µg/disc [mm]
1,COc1ccnc(C(=O)N[C@H]2COC(=O)[C@H](Cc3ccccc3)[C@@H](OC(=O)C(C)C)[C@H](C)OC2=O)c1OC(C)=O,18
2,COc1ccnc(C(=O)N[C@H]2COC(=O)[C@H](Cc3ccccc3)[C@@H](OC(=O)C(C)C)[C@H](C)OC2=O)c1OC(=O)CCCCCC(=O)Oc1ccccc1,18
3,CC(C)C(=O)O[C@H]1[C@H](C)OC(=O)[C@@H](NC(=O)c2nc3ccccc3nc2O)COC(=O)[C@@H]1Cc1ccccc1,24
4,CC(C)C(=O)O[C@H]1[C@H](C)OC(=O)[C@@H](NC(=O)c2cccnc2O)COC(=O)[C@@H]1Cc1ccccc1,17
5,COc1ccc(O)c(C(=O)N[C@H]2COC(=O)[C@H](Cc3ccccc3)[C@@H](OC(=O)C(C)C)[C@H](C)OC2=O)n1,27
6,COc1ccnc(C(=O)N[C@H]2COC(=O)[C@H](Cc3ccc([N+](=O)[O-])cc3)[C@@H](OC(=O)C(C)C)[C@H](C)OC2=O)c1O,20
7,COc1ccnc(C(=O)N[C@H]2COC(=O)[C@H](Cc3ccc(N(C)C)cc3)[C@@H](OC(=O)C(C)C)[C@H](C)OC2=O)c1O,19
8,CC(C)C(=O)O[C@H]1[C@H](C)OC(=O)[C@@H](NC(=O)c2cccc(NC=O)c2O)COC(=O)[C@@H]1Cc1ccccc1,17
9,CC(C)C(=O)O[C@H]1[C@H](C)OC(=O)[C@@H](NC(=O)c2cccc(N(C)C)c2O)COC(=O)[C@@H]1Cc1ccccc1,14
10,COc1ccnc(C(=O)N[C@H]2COC(=O)[C@H](Cc3ccc(NC=O)cc3)[C@@H](OC(=O)C(C)C)[C@H](C)OC2=O)c1O,0
11,COc1ccnc(C(=O)N[C@H]2COC(=O)[C@H](Cc3ccccc3)[C@@H](OC(=O)C(C)C)[C@H](C)OC2=O)c1O,26
12,COc1ccnc(C(=O)N[C@H]2COC(=O)[C@H](Cc3ccc(N)cc3)[C@@H](OC(=O)C(C)C)[C@H](C)OC2=O)c1O,10
13,COc1ccnc(C(=O)N[C@H]2COC(=O)[C@H](Cc3ccccc3)[C@@H](OC(=O)C(C)C)[C@H](C)OC2=O)c1OC(=O)CCCCCC(=O)O,24
14,CCOC(=O)COc1c(OC)ccnc1C(=O)N[C@H]1COC(=O)[C@H](Cc2ccccc2)[C@@H](OC(=O)C(C)C)[C@H](C)OC1=O,0
15,CC(C)C(=O)O[C@H]1[C@H](C)OC(=O)[C@@H](NC(=O)c2ccccc2O)COC(=O)[C@@H]1Cc1ccccc1,12
16,COc1ccnc(C(=O)N[C@H]2COC(=O)[C@H](Cc3ccccc3)[C@@H](OC(=O)C(C)C)[C@H](C)OC2=O)c1OC,0
17,CCCC[C@H]1C(=O)O[C@H](C)[C@H](NC(=O)c2cccc(NC=O)c2O)C(=O)O[C@@H](C)[C@@H]1OC(=O)CC(C)C [ANTIMYCIN A3],26

# System: Saccharomyces cerevisiae
# Experiment: Zone of inhibition for Saccharomyces cerevisiae IFO 0203 at 0.025 ug/disc by conventional paper disk method
# Type: functional
row,SMILES,zone of inhibition at 0.025 µg/disc [mm]
1,COc1ccnc(C(=O)N[C@H]2COC(=O)[C@H](Cc3ccccc3)[C@@H](OC(=O)C(C)C)[C@H](C)OC2=O)c1OC(C)=O,10
2,COc1ccnc(C(=O)N[C@H]2COC(=O)[C@H](Cc3ccccc3)[C@@H](OC(=O)C(C)C)[C@H](C)OC2=O)c1OC(=O)CCCCCC(=O)Oc1ccccc1,8
3,CC(C)C(=O)O[C@H]1[C@H](C)OC(=O)[C@@H](NC(=O)c2nc3ccccc3nc2O)COC(=O)[C@@H]1Cc1ccccc1,14
4,CC(C)C(=O)O[C@H]1[C@H](C)OC(=O)[C@@H](NC(=O)c2cccnc2O)COC(=O)[C@@H]1Cc1ccccc1,0
5,COc1ccc(O)c(C(=O)N[C@H]2COC(=O)[C@H](Cc3ccccc3)[C@@H](OC(=O)C(C)C)[C@H](C)OC2=O)n1,16
6,COc1ccnc(C(=O)N[C@H]2COC(=O)[C@H](Cc3ccc([N+](=O)[O-])cc3)[C@@H](OC(=O)C(C)C)[C@H](C)OC2=O)c1O,12
7,COc1ccnc(C(=O)N[C@H]2COC(=O)[C@H](Cc3ccc(N(C)C)cc3)[C@@H](OC(=O)C(C)C)[C@H](C)OC2=O)c1O,0
8,CC(C)C(=O)O[C@H]1[C@H](C)OC(=O)[C@@H](NC(=O)c2cccc(NC=O)c2O)COC(=O)[C@@H]1Cc1ccccc1,8
9,CC(C)C(=O)O[C@H]1[C@H](C)OC(=O)[C@@H](NC(=O)c2cccc(N(C)C)c2O)COC(=O)[C@@H]1Cc1ccccc1,8
10,COc1ccnc(C(=O)N[C@H]2COC(=O)[C@H](Cc3ccc(NC=O)cc3)[C@@H](OC(=O)C(C)C)[C@H](C)OC2=O)c1O,0
11,COc1ccnc(C(=O)N[C@H]2COC(=O)[C@H](Cc3ccccc3)[C@@H](OC(=O)C(C)C)[C@H](C)OC2=O)c1O,19
12,COc1ccnc(C(=O)N[C@H]2COC(=O)[C@H](Cc3ccc(N)cc3)[C@@H](OC(=O)C(C)C)[C@H](C)OC2=O)c1O,0
13,COc1ccnc(C(=O)N[C@H]2COC(=O)[C@H](Cc3ccccc3)[C@@H](OC(=O)C(C)C)[C@H](C)OC2=O)c1OC(=O)CCCCCC(=O)O,12
14,CCOC(=O)COc1c(OC)ccnc1C(=O)N[C@H]1COC(=O)[C@H](Cc2ccccc2)[C@@H](OC(=O)C(C)C)[C@H](C)OC1=O,0
15,CC(C)C(=O)O[C@H]1[C@H](C)OC(=O)[C@@H](NC(=O)c2ccccc2O)COC(=O)[C@@H]1Cc1ccccc1,8
16,COc1ccnc(C(=O)N[C@H]2COC(=O)[C@H](Cc3ccccc3)[C@@H](OC(=O)C(C)C)[C@H](C)OC2=O)c1OC,0
17,CCCC[C@H]1C(=O)O[C@H](C)[C@H](NC(=O)c2cccc(NC=O)c2O)C(=O)O[C@@H](C)[C@@H]1OC(=O)CC(C)C [ANTIMYCIN A3],16

# System: Saccharomyces cerevisiae
# Experiment: Zone of inhibition for Saccharomyces cerevisiae IFO 0203 at 0.125 ug/disc by conventional paper disk method
# Type: functional
row,SMILES,zone of inhibition at 0.125 µg/disc [mm]
1,COc1ccnc(C(=O)N[C@H]2COC(=O)[C@H](Cc3ccccc3)[C@@H](OC(=O)C(C)C)[C@H](C)OC2=O)c1OC(C)=O,14
2,COc1ccnc(C(=O)N[C@H]2COC(=O)[C@H](Cc3ccccc3)[C@@H](OC(=O)C(C)C)[C@H](C)OC2=O)c1OC(=O)CCCCCC(=O)Oc1ccccc1,15
3,CC(C)C(=O)O[C@H]1[C@H](C)OC(=O)[C@@H](NC(=O)c2nc3ccccc3nc2O)COC(=O)[C@@H]1Cc1ccccc1,20
4,CC(C)C(=O)O[C@H]1[C@H](C)OC(=O)[C@@H](NC(=O)c2cccnc2O)COC(=O)[C@@H]1Cc1ccccc1,16
5,COc1ccc(O)c(C(=O)N[C@H]2COC(=O)[C@H](Cc3ccccc3)[C@@H](OC(=O)C(C)C)[C@H](C)OC2=O)n1,24
6,COc1ccnc(C(=O)N[C@H]2COC(=O)[C@H](Cc3ccc([N+](=O)[O-])cc3)[C@@H](OC(=O)C(C)C)[C@H](C)OC2=O)c1O,18
7,COc1ccnc(C(=O)N[C@H]2COC(=O)[C@H](Cc3ccc(N(C)C)cc3)[C@@H](OC(=O)C(C)C)[C@H](C)OC2=O)c1O,15
8,CC(C)C(=O)O[C@H]1[C@H](C)OC(=O)[C@@H](NC(=O)c2cccc(NC=O)c2O)COC(=O)[C@@H]1Cc1ccccc1,16
9,CC(C)C(=O)O[C@H]1[C@H](C)OC(=O)[C@@H](NC(=O)c2cccc(N(C)C)c2O)COC(=O)[C@@H]1Cc1ccccc1,12
10,COc1ccnc(C(=O)N[C@H]2COC(=O)[C@H](Cc3ccc(NC=O)cc3)[C@@H](OC(=O)C(C)C)[C@H](C)OC2=O)c1O,0
11,COc1ccnc(C(=O)N[C@H]2COC(=O)[C@H](Cc3ccccc3)[C@@H](OC(=O)C(C)C)[C@H](C)OC2=O)c1O,26
12,COc1ccnc(C(=O)N[C@H]2COC(=O)[C@H](Cc3ccc(N)cc3)[C@@H](OC(=O)C(C)C)[C@H](C)OC2=O)c1O,8
13,COc1ccnc(C(=O)N[C@H]2COC(=O)[C@H](Cc3ccccc3)[C@@H](OC(=O)C(C)C)[C@H](C)OC2=O)c1OC(=O)CCCCCC(=O)O,21
14,CCOC(=O)COc1c(OC)ccnc1C(=O)N[C@H]1COC(=O)[C@H](Cc2ccccc2)[C@@H](OC(=O)C(C)C)[C@H](C)OC1=O,0
15,CC(C)C(=O)O[C@H]1[C@H](C)OC(=O)[C@@H](NC(=O)c2ccccc2O)COC(=O)[C@@H]1Cc1ccccc1,11
16,COc1ccnc(C(=O)N[C@H]2COC(=O)[C@H](Cc3ccccc3)[C@@H](OC(=O)C(C)C)[C@H](C)OC2=O)c1OC,0
17,CCCC[C@H]1C(=O)O[C@H](C)[C@H](NC(=O)c2cccc(NC=O)c2O)C(=O)O[C@@H](C)[C@@H]1OC(=O)CC(C)C [ANTIMYCIN A3],19

# System: Saccharomyces cerevisiae
# Experiment: Zone of inhibition for Saccharomyces cerevisiae IFO 0203 at 0.05 ug/disc by conventional paper disk method
# Type: functional
row,SMILES,zone of inhibition at 0.05 µg/disc [mm]
1,COc1ccnc(C(=O)N[C@H]2COC(=O)[C@H](Cc3ccccc3)[C@@H](OC(=O)C(C)C)[C@H](C)OC2=O)c1OC(C)=O,12
2,COc1ccnc(C(=O)N[C@H]2COC(=O)[C@H](Cc3ccccc3)[C@@H](OC(=O)C(C)C)[C@H](C)OC2=O)c1OC(=O)CCCCCC(=O)Oc1ccccc1,10
3,CC(C)C(=O)O[C@H]1[C@H](C)OC(=O)[C@@H](NC(=O)c2nc3ccccc3nc2O)COC(=O)[C@@H]1Cc1ccccc1,18
4,CC(C)C(=O)O[C@H]1[C@H](C)OC(=O)[C@@H](NC(=O)c2cccnc2O)COC(=O)[C@@H]1Cc1ccccc1,12
5,COc1ccc(O)c(C(=O)N[C@H]2COC(=O)[C@H](Cc3ccccc3)[C@@H](OC(=O)C(C)C)[C@H](C)OC2=O)n1,19
6,COc1ccnc(C(=O)N[C@H]2COC(=O)[C@H](Cc3ccc([N+](=O)[O-])cc3)[C@@H](OC(=O)C(C)C)[C@H](C)OC2=O)c1O,15
7,COc1ccnc(C(=O)N[C@H]2COC(=O)[C@H](Cc3ccc(N(C)C)cc3)[C@@H](OC(=O)C(C)C)[C@H](C)OC2=O)c1O,11
8,CC(C)C(=O)O[C@H]1[C@H](C)OC(=O)[C@@H](NC(=O)c2cccc(NC=O)c2O)COC(=O)[C@@H]1Cc1ccccc1,12
9,CC(C)C(=O)O[C@H]1[C@H](C)OC(=O)[C@@H](NC(=O)c2cccc(N(C)C)c2O)COC(=O)[C@@H]1Cc1ccccc1,8
10,COc1ccnc(C(=O)N[C@H]2COC(=O)[C@H](Cc3ccc(NC=O)cc3)[C@@H](OC(=O)C(C)C)[C@H](C)OC2=O)c1O,0
11,COc1ccnc(C(=O)N[C@H]2COC(=O)[C@H](Cc3ccccc3)[C@@H](OC(=O)C(C)C)[C@H](C)OC2=O)c1O,22
12,COc1ccnc(C(=O)N[C@H]2COC(=O)[C@H](Cc3ccc(N)cc3)[C@@H](OC(=O)C(C)C)[C@H](C)OC2=O)c1O,0
13,COc1ccnc(C(=O)N[C@H]2COC(=O)[C@H](Cc3ccccc3)[C@@H](OC(=O)C(C)C)[C@H](C)OC2=O)c1OC(=O)CCCCCC(=O)O,16
14,CCOC(=O)COc1c(OC)ccnc1C(=O)N[C@H]1COC(=O)[C@H](Cc2ccccc2)[C@@H](OC(=O)C(C)C)[C@H](C)OC1=O,0
15,CC(C)C(=O)O[C@H]1[C@H](C)OC(=O)[C@@H](NC(=O)c2ccccc2O)COC(=O)[C@@H]1Cc1ccccc1,8
16,COc1ccnc(C(=O)N[C@H]2COC(=O)[C@H](Cc3ccccc3)[C@@H](OC(=O)C(C)C)[C@H](C)OC2=O)c1OC,0
17,CCCC[C@H]1C(=O)O[C@H](C)[C@H](NC(=O)c2cccc(NC=O)c2O)C(=O)O[C@@H](C)[C@@H]1OC(=O)CC(C)C [ANTIMYCIN A3],18
